Experimental data: US12144851B2, “Vaccinal strategy” (INSERM (INSTITUT NATIONAL DE LA SANTÉ ET DE LA RECHERCHE …, priority 2018, dated 2024)
Read-outs that look alike come from different tables or passages of the source. Where a SMILES comes first, the peptide text is derived from it. Where no end group is shown, it is not given here.

Key:
[1] = test system: MELOE-1, HLA A*0201 restricted CD8 T cell clone; settings: for cross-presentation compared with full length MELOE-1 / native antigen (in words): full length MELOE-1 as reference; for Fold change = EC50 (M) of MELOE-111-46/EC50 (M) SLP: SLP MELOE-113-27 xxxx MELOE-136-44, TNF-a response of CD8 T cell clone to SLP-loaded DC, range over independent experiments
[2] = test system: MELOE-1, HLA DRb1*11 restricted CD4 T cell clone
[3] = test system: CD8+ splenocytes restimulated with MELOE-136-44; assay: Immunization of transgenic mice with SLP, CD8 ELISpot-IFN-g; format: in vivo, HLA-DRB1*0101/HLA-A*0201 transgenic mice; settings: INFg-ELIspot; positive if spots more than twice background and above ten; s.c. 100 μg prime, 50 μg boosts, IFA + polyI:C
Method: CD8+ splenocytes from immunized mice were tested by INFg-ELIspot following restimulation with the short epitope MELOE-136-44. Mice were considered positive if the number of spots after restimulation were more than twice the background level and above ten spots.
HLA-DRB1*0101/HLA-A*0201 transgenic mice (A2/DR1 mice) were used to evaluate immunogenicity of peptides. Group of 5 female A2/DR1 mice (6 to 10 weeks) were immunized subcutaneously with 100 μg of each peptides emulsified in incomplete Freund adjuvant (v/v) plus 50 μg of polyI:C. At day 14 and day 28 boost vaccinations were performed with 50 μg of each peptide along with the same adjuvants. All experiments were carried out according to the good laboratory practices defined by the animal experimentation Rules in France.
Specific immune responses were evaluated 10 days after the last boost by ELISpot-IFN-g (Diaclone, France). Briefly, freshly isolated splenocytes or CD8 positive T cells from spleen (CD8+ T Cell Isolation Kit, Miltenyi Biotec) were incubated (2.105 cells per well) during 15-20 hours in ELISpot plate in the presence of the class I MELOE-1 epitope (5 μg/ml final) or medium (X-vivo, as negative control) or PMA-ionomycin (positive control). Ex vivo CD4 T cell responses were evaluated on the CD8 negative fraction as above with the HLA-DRB1*0101-restricted epitope MELOE-113-27. […] Spot-forming cells were counted using the «C.T.L. Immunospot» system (Cellular Technology Ltd). Results were considered positive when the ELISPOT counts were >10 spots and above 2× the background (medium). (Dosset et al Clin Cancer Res, 2012)
Finally, we explored the immunogenicity of our SLP in vivo in HLA-DRB1*0101/HLA-A*0201 transgenic mice. Mice were immunized subcutaneously with 100 μg of SLP in IFA and poly I:C and boosted at D14 and D28 with 50 μg of SLP with the same adjuvants (see M&M). We focused on cross-presentation and thus assessed CD8 T cell responses by ELISpot-IFN-g after re-stimulation with the short MELOE-1136-44 epitope (SEQ ID NO:31) or with medium alone. A mouse was considered responder when ELIspots were above 10 and at least twice about background. A typical experiment is presented in FIG. 7 comparing immunization with SLP containing MELOE-113-27 (SEQ ID NO:21) and MELOE-136-44 (SEQ ID NO:31) with linker GGGG (SEQ ID NO:160) or LLSVGG (SEQ ID NO:9). Immunization with SLP containing GGGG (SEQ ID NO:160) generated moderate CD8 responses in 3 out of five mice while immunization with SLP with LLSVGG (SEQ ID NO:9) was efficient in all 5 mice with two mice showing robust CD8 responses. Previous experiments performed with the shorter linkers LLSV (SEQ ID NO:4) or LLSVG (SEQ ID NO:8) also supported the hypothesis that our synthetic linkers favored cross-presentation when compared to either the linker GGGG or the native sequence (Table 4). In contrast, CD4 responses evaluated ex vivo towards the HLA-DRB1*0101 epitope were very low (FIG. 7C).

[4] = test system: CD4 MELOE-113-27-specific T cell clone (HLA DRB1*01 restricted)
Source text: MELOE-111-46 native long peptide and SLP with the linker GGGG (SEQ ID NO:160) were used as controls.

[5] = read-out: EC50, cross-presentation of the HLA-A*0201-restricted MELOE-1 epitope, SLP series MELOE-1 11-23 xxxx MELOE-1 36-44, three independent experiments, FIG. 3

Compound	Fold change = EC50 (M) of MELOE-111-46/EC50 (M) SLP [1]	EC50 [1, 5]	cross-presentation compared with full length MELOE-1 / native antigen (in words) [1]	other results
CC(C)C[C@H](NC(=O)[C@@H](NC(=O)CNC(=O)CNC(=O)CNC(=O)CNC(=O)[C@H](Cc1c[nH]c2ccccc12)NC(=O)[C@@H]1CCCN1C(=O)[C@@H]1CCCN1C(=O)[C@H](CS)NC(=O)[C@H](C)NC(=O)[C@H](C)NC(=O)CNC(=O)[C@H](CCC(=O)O)NC(=O)[C@H](CO)NC(=O)[C@@H]1CCCN1C(=O)[C@H](CC(C)C)NC(=O)[C@H](Cc1ccccc1)NC(=O)[C@H](CCC(N)=O)NC(=O)[C@H](CCC(=O)O)NC(=O)[C@H](CCCNC(=N)N)NC(=O)[C@H](CO)NC(=O)[C@@H](NC(=O)[C@H](C)NC(=O)[C@H](C)N)[C@@H](C)O)[C@@H](C)O)C(=O)N[C@@H](CC(N)=O)C(=O)N[C@@H](CC(=O)O)C(=O)N[C@@H](CCC(=O)O)C(=O)N[C@@H](CS)C(=O)N[C@@H](Cc1c[nH]c2ccccc12)C(=O)N1CCC[C@H]1C(=O)N[C@@H](C)C(=O)O [GGGG (MELOE-111-23 xxxx MELOE-136-44), reference compound] (H-AATSREQFLPSEGAACPPWGGGGTLNDECWPA-OH; N-terminus and C-terminus assumed)	–	–	poorer cross-presentation	EC50 [1]: 1200 nM
CC[C@H](C)[C@H](NC(=O)[C@H](CCCNC(=N)N)NC(=O)[C@H](CCC(=O)O)NC(=O)[C@H](CO)NC(=O)[C@@H]1CCCN1C(=O)[C@H](Cc1c[nH]cn1)NC(=O)[C@H](Cc1c[nH]c2ccccc12)NC(=O)[C@@H]1CCCN1C(=O)[C@@H]1CCCN1C(=O)[C@H](CS)NC(=O)[C@H](C)NC(=O)[C@H](C)N)C(=O)N[C@@H](CO)C(=O)N[C@@H](CO)C(=O)N[C@H](C(=O)N[C@@H](CC(C)C)C(=O)NCC(=O)NCC(=O)NCC(=O)NCC(=O)N[C@H](C(=O)N[C@@H](CC(C)C)C(=O)N[C@@H](CC(N)=O)C(=O)N[C@@H](CC(=O)O)C(=O)N[C@@H](CCC(=O)O)C(=O)N[C@@H](CS)C(=O)N[C@@H](Cc1c[nH]c2ccccc12)C(=O)N1CCC[C@H]1C(=O)N[C@@H](C)C(=O)N[C@@H](CO)C(=O)N[C@@H](CC(C)C)C(=O)O)[C@@H](C)O)[C@@H](C)O [GGGG (MELOE-124-37 xxxx MELOE-136-44), reference compound] (H-AACPPWHPSERISSTLGGGGTLNDECWPASL-OH; N-terminus and C-terminus assumed)	–	–	–	EC50 [2]: 26 nM; EC50 [1]: 1900 nM
CC[C@H](C)[C@H](NC(=O)[C@H](CCCNC(=N)N)NC(=O)[C@H](CCC(=O)O)NC(=O)[C@H](CO)NC(=O)[C@@H]1CCCN1C(=O)[C@H](Cc1c[nH]cn1)NC(=O)[C@H](Cc1c[nH]c2ccccc12)NC(=O)[C@@H]1CCCN1C(=O)[C@@H]1CCCN1C(=O)[C@H](CS)NC(=O)[C@H](C)NC(=O)[C@H](C)N)C(=O)N[C@@H](CO)C(=O)N[C@@H](CO)C(=O)N[C@H](C(=O)N[C@@H](CC(C)C)C(=O)N[C@@H](CC(C)C)C(=O)N[C@H](C(=O)NCC(=O)N[C@@H](CO)C(=O)N[C@H](C(=O)N[C@@H](CC(C)C)C(=O)N[C@@H](CC(N)=O)C(=O)N[C@@H](CC(=O)O)C(=O)N[C@@H](CCC(=O)O)C(=O)N[C@@H](CS)C(=O)N[C@@H](Cc1c[nH]c2ccccc12)C(=O)N1CCC[C@H]1C(=O)N[C@@H](C)C(=O)N[C@@H](CO)C(=O)N[C@@H](CC(C)C)C(=O)O)[C@@H](C)O)C(C)C)[C@@H](C)O [LVGS (MELOE-124-37 xxxx MELOE-136-44)] (H-AACPPWHPSERISSTLLVGSTLNDECWPASL-OH)	–	–	–	EC50 [2]: 14 nM; EC50 [1]: 110 nM
ASLG [ASLG (MELOE-111-23 xxxx MELOE-136-44)]	–	12 nM	ten fold better presentation	–
GSGS [GSGS (MELOE-111-23 xxxx MELOE-136-44)]	–	430 nM	poorer cross-presentation	–
LLSV [LLSV (MELOE-111-23 xxxx MELOE-136-44)]	–	2.8 nM	hundred fold better	–
LVGS [LVGS (MELOE-111-23 xxxx MELOE-136-44)]	–	34 nM	ten fold better presentation	–
MSCVGYPDEATSREQFLPSEGAACPPWHPSERISSTLNDECWPASL (cysteines drawn unpaired) [full length MELOE-1, reference compound]	–	–	–	EC50 [2]: ~70 nM
PIVLG [PIVLG (MELOE-111-23 xxxx MELOE-136-44)]	–	3.2 nM	hundred fold better	–
TSREQFLPSEGAACPPWVLSVGGTLNDECWPASL (Synthetic SLP) [SEQ ID NO: 69]	1.5-2	–	–	–
TSREQFLPSEGAACPPWVLSVGTLNDECWPASL (Synthetic SLP) [SEQ ID NO: 71]	3-13	–	ten fold	–

Continued, in another order:

Fold change = EC50 (M) of MELOE-111-46/EC50 (M) SLP [1]	EC50 [1, 5]	Compound	cross-presentation compared with full length MELOE-1 / native antigen (in words) [1]	other results
10-20	–	CC(C)C[C@H](NC(=O)[C@H](CO)NC(=O)[C@H](C)NC(=O)[C@@H]1CCCN1C(=O)[C@H](Cc1c[nH]c2ccccc12)NC(=O)[C@H](CS)NC(=O)[C@H](CCC(=O)O)NC(=O)[C@H](CC(=O)O)NC(=O)[C@H](CC(N)=O)NC(=O)[C@H](CC(C)C)NC(=O)[C@@H](NC(=O)CNC(=O)[C@@H](NC(=O)[C@H](CO)NC(=O)[C@H](CC(C)C)NC(=O)[C@H](CC(C)C)NC(=O)[C@H](Cc1c[nH]c2ccccc12)NC(=O)[C@@H]1CCCN1C(=O)[C@@H]1CCCN1C(=O)[C@H](CS)NC(=O)[C@H](C)NC(=O)[C@H](C)NC(=O)CNC(=O)[C@H](CCC(=O)O)NC(=O)[C@H](CO)NC(=O)[C@@H]1CCCN1C(=O)[C@H](CC(C)C)NC(=O)[C@H](Cc1ccccc1)NC(=O)[C@H](CCC(N)=O)NC(=O)[C@H](CCC(=O)O)NC(=O)[C@H](CCCNC(=N)N)NC(=O)[C@H](CO)NC(=O)[C@@H](N)[C@@H](C)O)C(C)C)[C@@H](C)O)C(=O)O [SEQ ID NO: 89] (H-TSREQFLPSEGAACPPWLLSVGTLNDECWPASL-OH; N-terminus and C-terminus assumed)	–	CD8 responses, positive mice, Exp#2 [3]: 2/5; EC50 [4]: 6.8 nM
1-3	–	TSREQFLPSEGAACPPWALSVGGTLNDECWPASL (Synthetic SLP) [SEQ ID NO: 77]	–	–
1	–	TSREQFLPSEGAACPPWGLSVGGTLNDECWPASL (Synthetic SLP) [SEQ ID NO: 81]	–	–
1	–	TSREQFLPSEGAACPPWGLSVVVTLNDECWPASL (Synthetic SLP) [SEQ ID NO: 85]	–	–
2.3-10	–	TSREQFLPSEGAACPPWPLSVIITLNDECWPASL (Synthetic SLP) [SEQ ID NO: 79]	–	–
7-8	–	TSREQFLPSEGAACPPWSLSVAATLNDECWPASL (Synthetic SLP) [SEQ ID NO: 73]	–	–
1-8	–	TSREQFLPSEGAACPPWSLSVGGTLNDECWPASL (Synthetic SLP) [SEQ ID NO: 75]	–	–
–	2.1 nM	VLSVG [VLSVG (MELOE-111-23 xxxx MELOE-136-44)]	hundred fold better	–
